Columns and labels:
[1] = Cytostatic effects on NHDF cells in the anti-HCMV cytopathogenicity test; assay type: cell-based, human; conditions: human, concentration at which no visible cytostatic effects on NHDF cells are evident vs untreated cell control
Experimental: (§1) Anti-HCMV (Anti-Human Cytomegalovirus) Cytopathogenicity Tests The test compounds are employed as 50 millimolar (mM) solutions in dimethyl sulfoxide (DMSO). Ganciclovir®, Foscarnet® and Cidofovir® are used as reference compounds. After the addition of 2 μl of the 50, 5, 0.5 and 0.05 mM DMSO stock solutions respectively to 98 μl portions of cell culture medium in row […] for duplicate determinations, 1:2 dilutions are carried out with 50 μl portions of medium up to row 11 of the 96-well plate. The wells in rows 1 and 12 each contain 50 μl of medium. 150 μl of a suspension of 1×10^4 cells (human prepuce fibroblasts [NHDF]) are then pipetted into each of the wells (row 1=cell control) and, in rows 2-12, a mixture of HCMV-infected and uninfected NHDF cells (M.O.I.=0.001-0.002), i.e. 1-2 infected cells per 1000 uninfected cells. Row 12 (without substance) serves as virus control. The final test concentrations are 250-0.0005 μM. The plates are incubated at 37° C./5% CO2 for 6 days, i.e. until all the cells in the virus controls are infected (100% cytopathogenic effect [CPE]). The wells are then fixed and stained by adding a mixture of formalin and Giemsa's dye (30 minutes), washed with double-distilled water and dried in a drying oven at 50° C. The plates are then assessed visually using an overhead microscope (plaque multiplier from Technomara). The following data can be obtained from the test plates: CC50 (NHDF)=substance concentration in μM at which no visible cytostatic effects on the cells are evident compared with the untreated cell control;

HCMV = assay: Anti-HCMV (anti-human cytomegalovirus) cytopathogenicity test; assay type: cell-based; conditions: Human betaherpesvirus 5, NHDF, 144 h, concentration inhibiting the CPE by 50% vs untreated virus control; HCMV-infected NHDF cells, 6 days, visual assessment
Experimental: as §1, with “plates: EC50 (HCMV)=substance” for “plates: CC50 (NHDF)=substance”, “μM” for “μM at”, “which inhibits” for “which no visible cytostatic effects on”, “the CPE (cytopathic effect) by 50%” for “the cells are evident”, “untreated virus” for “untreated cell”

EC50 (HCMV) [µM]	SMILES	CC50 at 6 days [1] [µM]
0.008	COc1c(N2CCC(C(=O)O)CC2)c(F)cc2c(=O)c(C(=O)NCc3ccc(OC(F)(F)F)cc3C)cn([C@@H]3C[C@@H]3F)c12 [Example 63]	47
0.026	COc1c(N2CCCC(CC(=O)O)C2)c(F)cc2c(=O)c(C(=O)NCc3ccc(Cl)cc3Cl)cn(CC(F)(F)F)c12 (stereo not shown) [Example 51, [3-{[(2,4-Dichlorobenzyl)amino]carbonyl}-6-fluoro-8-methoxy-4-oxo-1-(2,2,2-trifluoroethyl)-1,4-dihydroquinolin-7-yl]piperidin-3-ylacetic acid]	47
0.005	CCOC(=O)C1CCN(c2c(F)cc3c(=O)c(C(=O)NCc4ccc(OC(F)(F)F)cc4C)cn(CC(F)(F)F)c3c2OC)CC1 [Example 2, Ethyl 1-[6-fluoro-8-methoxy-3-({[2-methyl-4-(trifluoromethoxy)benzyl]amino}carbonyl)-4-oxo-1-(2,2,2-trifluoroethyl)-1,4-dihydroquinolin-7-yl]piperidine-4-carboxylate]	47
0.04	COc1c(N2CCC3(CC2)CNC(=O)C3)c(F)cc2c(=O)c(C(=O)NCc3ccc(OC(F)(F)F)cc3C)cn(C3CC3)c12 [Example 34, 1-Cyclopropyl-6-fluoro-8-methoxy-N-[2-methyl-4-(trifluoromethoxy)benzyl]-4-oxo-7-(3-oxo-2,8-diazaspiro[4.5]dec-8-yl)-1,4-dihydroquinoline-3-carboxamide]	11
0.013	COc1c(N2CCC(C(N)=O)CC2)c(F)cc2c(=O)c(C(=O)NCc3ccc(Cl)cc3Cl)cn(CC(F)(F)F)c12 [Example 27]	21
0.006	Cc1cc(OC(F)(F)F)ccc1CNC(=O)c1cn(CC(F)(F)F)c2c(O)c(N3CCC(C(=O)O)CC3)c(F)cc2c1=O [Example 77, 1-[6-Fluoro-8-hydroxy-3-({[2-methyl-4-(trifluoromethoxy)benzyl]amino}carbonyl)-4-oxo-1-(2,2,2-trifluoroethyl)-1,4-dihydroquinolin-7-yl]piperidine-4-carboxylic acid]	250
0.004	COc1c(N2CCC(C(=O)O)CC2)c(F)cc2c(=O)c(C(=O)NCc3ccc(OC(F)(F)F)cc3C)cn(CC(F)(F)F)c12 [Example 47, 1-[6-Fluoro-8-methoxy-3-({[2-methyl-4-(trifluoromethoxy)benzyl]amino}carbonyl)-4-oxo-1-(2,2,2-trifluoroethyl)-1,4-dihydroquinolin-7-yl]piperidine-4-carboxylic acid]	86
0.008	COc1c(N2CCC(C(N)=O)CC2)c(F)cc2c(=O)c(C(=O)NCc3ccc(OC(F)(F)F)cc3C)cn(CC(F)(F)F)c12 [Example 31, 1-[6-Fluoro-8-methoxy-3-({[2-methyl-4-(trifluoromethoxy)benzyl]amino}carbonyl)-4-oxo-1-(2,2,2-trifluoroethyl)-1,4-dihydroquinolin-7-yl]piperidine-4-carboxamide]	16
0.001	COc1c(N2CCC(C(=O)O)CC2)c(F)cc2c(=O)c(C(=O)NCc3ccc(OC(F)(F)F)cc3C)cn(CC(F)F)c12 [Example 62]	148
0.034	COc1c(N2CCC(C(N)=O)CC2)c(F)cc2c(=O)c(C(=O)NCc3ccc(C(F)(F)F)cc3C)cn(CC(F)(F)F)c12 [Example 30]	11
0.002	CCOc1c(N2CCC(C(=O)O)CC2)c(F)cc2c(=O)c(C(=O)NCc3ccc(OC(F)(F)F)cc3C)cn(CC(F)(F)F)c12 [Example 79, 1-[8-Ethoxy-6-fluoro-3-({[2-methyl-4-(trifluoromethoxy)benzyl]amino}carbonyl)-4-oxo-1-(2,2,2-trifluoroethyl)-1,4-dihydroquinolin-7-yl]piperidine-4-carboxylic acid]	125
0.008	CCOC(=O)C1CCN(c2c(F)cc3c(=O)c(C(=O)NCc4ccc(OC(F)(F)F)cc4Cl)cn(CC(F)(F)F)c3c2OC)CC1 [Example 3, Ethyl 1-[3-({[2-chloro-4-(trifluoromethoxy)benzyl]amino}carbonyl)-6-fluoro-8-methoxy-4-oxo-1-(2,2,2-trifluoroethyl)-1,4-dihydroquinolin-7-yl]piperidine-4-carboxylate]	24
0.009	CCOC(=O)C1CCN(c2c(F)cc3c(=O)c(C(=O)NCc4ccc(Cl)cc4Cl)cn(CC(F)(F)F)c3c2OC)CC1 [Example 1, Ethyl 1-[3-{[(2,4-dichlorobenzyl)amino]carbonyl}-6-fluoro-8-methoxy-4-oxo-1-(2,2,2-trifluoroethyl)-1,4-dihydroquinolin-7-yl]piperidine-4-carboxylate]	94
0.012	COc1c(N2CCC(C(=O)O)CC2)c(F)cc2c(=O)c(C(=O)NCc3ccc(Cl)cc3Cl)cn(CC(F)(F)F)c12 [Example 50, 1-[3-{[(2,4-Dichlorobenzyl)amino]carbonyl}-6-fluoro-8-methoxy-4-oxo-1-(2,2,2-trifluoroethyl)-1,4-dihydroquinolin-7-yl]piperidine-4-carboxylic acid]	47
0.031	COc1ccc(CNC(=O)c2cn(CC(F)(F)F)c3c(OC)c(N4CCC(C(=O)O)CC4)c(F)cc3c2=O)c(Cl)c1 [Example 55]	16
0.079	COc1c(N2CCC(C(=O)O)CC2)c(F)cc2c(=O)c(C(=O)NCc3ccc(OC(F)(F)F)cc3C)cn(C(C)CF)c12 (stereo not shown) [Example 65]	106
0.019	CCOC(=O)C1CCN(c2c(F)cc3c(=O)c(C(=O)NCc4ccc(Cl)cc4Cl)cn([C@H]4C[C@H]4F)c3c2OC)CC1 [Example 13]	23
0.005	COc1c(N2CCC(CC(=O)O)CC2)c(F)cc2c(=O)c(C(=O)NCc3ccc(OC(F)(F)F)cc3C)cn(CC(F)(F)F)c12 [Example 53, [6-Fluoro-8-methoxy-3-({[2-methyl-4-(trifluoromethoxy)benzyl]amino}carbonyl)-4-oxo-1-(2,2,2-trifluoroethyl)-1,4-dihydroquinolin-7-yl]piperidin-4-ylacetic acid]	94
0.061	COc1c(N2CCC(CC(=O)O)CC2)c(F)cc2c(=O)c(C(=O)NCc3ccc(Cl)cc3C)cn(C3CC3)c12 [Example 67]	21
0.014	COc1c(N2CCC3(CC2)CNC(=O)C3)c(F)cc2c(=O)c(C(=O)NCc3ccc(OC(F)(F)F)cc3Cl)cn(CC(F)(F)F)c12 [Example 36]	21
0.007	COc1c(N2CCC(C(=O)O)CC2)c(F)cc2c(=O)c(C(=O)NCc3ccc(OC(F)(F)F)cc3C)cn(C3CCC3)c12 [Example 61]	21
0.014	COc1c(N2CCC(C(N)=O)CC2)c(F)cc2c(=O)c(C(=O)NCc3ccc(Cl)cc3C)cn(CC(F)(F)F)c12 [Example 28]	21
0.018	CCOC(=O)C1CCN(c2c(F)cc3c(=O)c(C(=O)NCc4ccc(Cl)cc4C)cn(CC(F)(F)F)c3c2OC)CC1 [Example 7]	94
0.003	COc1c(N2CCC[C@H](CC(=O)O)C2)c(F)cc2c(=O)c(C(=O)NCc3ccc(OC(F)(F)F)cc3C)cn(CC(F)(F)F)c12 [Example 73, {(3R)-1-[6-Fluoro-8-methoxy-3-({[2-methyl-4-(trifluoromethoxy)benzyl]amino}carbonyl)-4-oxo-1-(2,2,2-trifluoroethyl)-1,4-dihydroquinolin-7-yl]piperidin-3-yl}acetic acid]	47
0.022	COc1c(N2CCC(C(=O)O)CC2)c(F)cc2c(=O)c(C(=O)NCc3ccc(C(F)(F)F)cc3C)cn(CC(F)(F)F)c12 [Example 54]	21
0.026	COc1c(N2CCC(C(=O)O)CC2)c(F)cc2c(=O)c(C(=O)NCc3c(C)cc(Cl)cc3Cl)cn(CC(F)(F)F)c12 [Example 57]	23
